Measurements published in patent publication US8946215B2, “Hydroxy-substituted imidazo[1,2-a]pyridinecarboxamides and their use” (Bayer Pharma Aktiengesellschaft, priority 2012, dated 2015).

Key:
[1] = Determination of pharmacokinetic parameters following intravenous and oral administration (rats); assay type: in vivo, male Wistar rats; settings: following intravenous and peroral administration; for MRT / half-life: male, Wistar, rat, plasma; for MRT: read-out: MRT (Mean Residence Time); for half-life: read-out: t½ (terminal half life) (converted)
Protocol: B-6. Determination of Pharmacokinetic Parameters Following Intravenous and Oral Administration
The pharmacokinetic parameters of the compounds according to the invention are determined in male CD-1 mice, male Wistar rats and female beagles. Intravenous administration in the case of mice and rats is carried out by means of a species-specific plasma/DMSO formulation, and in the case of dogs by means of a water/PEG400/ethanol formulation. In all species, oral administration of the dissolved substance is performed via gavage, based on a water/PEG400/ethanol formulation.
The taking of blood from rats is simplified by inserting a silicone catheter into the right Vena jugularis externa prior to substance administration. The operation is carried out at least one day prior to the experiment with […] and administration of an analgesic (atropin/Rimadyl (3/1) 0.1 ml s.c.). The blood is taken (generally more than 10 time points) within a time window including terminal time points of at least 24 to a maximum of 72 hours after substance administration. When the blood is taken, it is passed into heparinised tubes. Then the blood plasma is obtained by centrifugation and is optionally stored at −20° C. until further processing.
An internal standard (which may also be a chemically unrelated substance) is added to the samples of the compounds according to the invention, calibration samples and qualifiers, and there follows protein precipitation by means of excess acetonitrile. Addition of a buffer solution matched to the LC conditions, and subsequent vortexing, is followed by centrifugation at 1000 g. The supernatant is analysed by LC-MS/MS using C18 reversed-phase columns and variable mobile phase mixtures.
The substances are quantified via the peak heights or areas from extracted ion chromatograms of specific selected ion monitoring experiments.
The plasma concentration/time plots determined are used to calculate the pharmacokinetic parameters such as AUC, Cmax, t1/2 (terminal half life), F (Bioavailability), MRT (Mean Residence Time) and CL (Clearance), using a validated pharmacokinetic calculation programme.
Since the substance quantification is carried out in plasma, it is necessary to determine the blood/plasma distribution of the substance in order to be able to adjust the pharmacokinetic parameters correspondingly. For this purpose, a defined amount of substance is incubated in heparinised whole blood of the species in question in a rocking roller mixer for 20 min. After centrifugation at 1000 g, the plasma concentration is measured (by means of LC-MS/MS; see above) and determined by calculating the ratio of the Cblood/Cplasma value.

[2] = biological target: T1, recombinant guanylate cyclase reporter cell line (Rattus norvegicus, UniProt P19686+P20595); assay: Action on recombinant guanylate cyclase reporter cell line; assay type: cell-based; settings: in some cases mean values obtained from individual determinations
T1 construct: expressed in transfected cells
T1 sequence (P20595 1-619): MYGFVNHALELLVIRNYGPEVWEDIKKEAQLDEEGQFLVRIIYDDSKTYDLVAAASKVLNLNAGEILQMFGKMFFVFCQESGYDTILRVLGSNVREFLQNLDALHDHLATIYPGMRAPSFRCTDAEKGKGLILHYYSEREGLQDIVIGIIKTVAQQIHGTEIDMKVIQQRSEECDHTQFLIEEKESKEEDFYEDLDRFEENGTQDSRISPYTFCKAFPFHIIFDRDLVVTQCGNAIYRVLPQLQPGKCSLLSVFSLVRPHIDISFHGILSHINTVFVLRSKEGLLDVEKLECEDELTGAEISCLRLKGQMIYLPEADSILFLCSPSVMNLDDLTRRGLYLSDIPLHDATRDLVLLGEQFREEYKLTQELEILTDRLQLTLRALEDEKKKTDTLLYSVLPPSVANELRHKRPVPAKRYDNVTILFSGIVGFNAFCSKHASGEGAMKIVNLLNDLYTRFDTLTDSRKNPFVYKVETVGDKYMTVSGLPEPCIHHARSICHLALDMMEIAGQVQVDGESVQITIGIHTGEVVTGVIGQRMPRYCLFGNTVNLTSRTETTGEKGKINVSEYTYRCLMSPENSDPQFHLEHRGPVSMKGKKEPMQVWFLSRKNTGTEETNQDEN
T1 sequence (P19686 1-690): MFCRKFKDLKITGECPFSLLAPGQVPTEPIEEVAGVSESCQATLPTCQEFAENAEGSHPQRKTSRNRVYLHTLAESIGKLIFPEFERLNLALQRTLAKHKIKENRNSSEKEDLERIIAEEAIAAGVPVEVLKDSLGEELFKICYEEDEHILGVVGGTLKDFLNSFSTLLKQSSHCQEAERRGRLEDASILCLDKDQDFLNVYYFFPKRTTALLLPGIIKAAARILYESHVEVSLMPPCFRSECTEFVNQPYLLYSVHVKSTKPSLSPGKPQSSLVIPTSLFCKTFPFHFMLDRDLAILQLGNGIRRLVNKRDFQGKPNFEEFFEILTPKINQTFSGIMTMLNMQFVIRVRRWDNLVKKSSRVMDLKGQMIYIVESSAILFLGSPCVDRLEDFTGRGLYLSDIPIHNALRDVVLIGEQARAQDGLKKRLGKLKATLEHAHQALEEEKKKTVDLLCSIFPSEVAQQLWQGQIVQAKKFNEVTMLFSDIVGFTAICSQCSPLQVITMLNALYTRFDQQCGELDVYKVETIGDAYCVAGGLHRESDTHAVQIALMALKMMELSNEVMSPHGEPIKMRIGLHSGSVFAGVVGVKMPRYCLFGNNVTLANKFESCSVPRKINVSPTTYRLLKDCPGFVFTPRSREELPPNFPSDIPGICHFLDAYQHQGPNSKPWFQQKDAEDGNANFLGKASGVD
In short: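 Cell-based reporter assay with recombinant guanylate cyclase expressed in a reporter cell line, per a published method. Activity reported as minimal effective concentration (MEC), in some cases as the mean of individual determinations.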

For `Cc1cc(OCc2ncccc2F)c2nc(C)c(C(=O)NC(CCCC(F)(F)F)C(C)(C)O)n2c1` (single isomer, unassigned; ent-8) [Example 181, ent-8-[(3-fluoropyridin-2-yl)methoxy]-2,6-dimethyl-N-(7,7,7-trifluoro-2-hydroxy-2-methylheptan-3-yl)imidazo[1,2-a]pyridine-3-carboxamide (enantiomer B)], the AUCnorm [1] was 2.5 kg·h/L, the CLblood [1] was 9.33 mL/min/kg and the MRT [1] was 3.3 h. For the same molecule, the half-life [1] was 3.4 h and the “MEC (minimal effective concentration)” value [2] was 0.3 µM.
In the case of `Cc1cc(OCc2ncccc2F)c2nc(C)c(C(=O)NC(CCC(F)(F)C(F)(F)F)C(C)(C)O)n2c1` (single isomer, unassigned; ent-8) [Example 187, ent-8-[(3-fluoropyridin-2-yl)methoxy]-2,6-dimethyl-N-(6,6,7,7,7-pentafluor-2-hydroxy-2-methylheptan-3-yl)imidazo[1,2-a]pyridine-3-carboxamide (enantiomer B)], the AUCnorm [1] is reported as 2.0 kg·h/L, the CLblood [1] is reported as 11.8 mL/min/kg and the MRT [1] is reported as 4 h. The half-life [1] was 4.6 h and the “MEC (minimal effective concentration)” value [2] was 1 µM.
